# Reference: ChEMBL document CHEMBL3797190, “Development of 3,5-Dinitrobenzylsulfanyl-1,3,4-oxadiazoles and Thiadiazoles as Selective Antitubercular Agents Active Against Replicating and Nonreplicating Mycobacterium tuberculosis” (J Med Chem, 2016)
# The source made the active and inactive calls. No cut-off for these calls is given here.
# Legend:
# [1] = system: Mycobacterium tuberculosis; experiment: Inhibition of RNA biosynthesis in Mycobacterium tuberculosis H37Ra assessed as reduction of [14C]-uracil incorporation at 1 ug/ml preincubated for 1 hr followed by radiolabeling with [14C]-uracil for 24 hrs by scintillation spectrometry; assay type: functional
# [2] = system: Mycobacterium tuberculosis; experiment: Inhibition of proteosynthesis in Mycobacterium tuberculosis H37Ra assessed as reduction of [14C]-methionine incorporation at 1 ug/ml preincubated for 1 hr followed by radiolabeling with [14C]-methionine for 24 hrs by scintillation spectrometry; assay type: functional
# [3] = system: Mycobacterium tuberculosis; experiment: Antimycobacterial activity against Mycobacterium tuberculosis CNCTC My 331/88 after 14 days by microdilution method; assay type: functional; settings: CNCTC My 331/88, 336 h
# Mycobacterium avium [4] = experiment: Antimycobacterial activity against Mycobacterium avium CNCTC My 330/88 after 14 days by microdilution method; assay type: functional; settings: CNCTC My 330/88, 336 h
# Mycobacterium kansasii [5] = experiment: Antimycobacterial activity against Mycobacterium kansasii CNCTC My 6509/96 after 14 days by microdilution method; assay type: functional; settings: CNCTC My 6509/96, 336 h
# [6] = system: Mycobacterium tuberculosis; experiment: Antimycobacterial activity against Mycobacterium tuberculosis CNCTC My 331/88 after 21 days by microdilution method; assay type: functional; settings: CNCTC My 331/88, 504 h
# Mycobacterium avium [7] = experiment: Antimycobacterial activity against Mycobacterium avium CNCTC My 330/88 after 21 days by microdilution method; assay type: functional; settings: CNCTC My 330/88, 504 h
# Mycobacterium kansasii [8] = experiment: Antimycobacterial activity against Mycobacterium kansasii CNCTC My 235/80 after 21 days by microdilution method; assay type: functional; settings: CNCTC My 235/80, 504 h
# Mycobacterium kansasii [9] = experiment: Antimycobacterial activity against Mycobacterium kansasii CNCTC My 235/80 after 7 days by microdilution method; assay type: functional; settings: CNCTC My 235/80, 168 h
# Mycobacterium kansasii [10] = experiment: Antimycobacterial activity against Mycobacterium kansasii CNCTC My 6509/96 after 7 days by microdilution method; assay type: functional; settings: CNCTC My 6509/96, 168 h
# [11] = Cytotoxicity against human HuH7 cells assessed as cell viability after 24 hrs by MTS assay; assay type: cell-based; settings: Huh-7, 24 h
# HeLa [12] = experiment: Cytotoxicity against human HeLa cells assessed as cell viability after 24 hrs by MTS assay; assay type: cell-based
# HeLa [13] = experiment: Cytotoxicity against human HeLa cells assessed as cell viability after 48 hrs by MTS assay; assay type: cell-based
# [14] = Cytotoxicity against human HuH7 cells assessed as cell viability at 20 uM after 24 hrs by MTS assay; assay type: cell-based, Huh-7; settings: read-out: Activity
# [15] = Cytotoxicity against human HuH7 cells assessed as cell viability at 20 uM after 48 hrs by MTS assay; assay type: cell-based, Huh-7; settings: read-out: Activity
# [16] = Cytotoxicity against human HeLa cells assessed as cell viability at 20 uM after 48 hrs by MTS assay; assay type: cell-based; settings: read-out: Activity
# [17] = Cytotoxicity against MDCK2-MDR1 cells assessed as cell viability at 20 uM after 24 hrs by MTS assay; assay type: ADME, cell-based, Canis lupus familiaris, MDCK-II; settings: dog, read-out: Activity
# [18] = Cytotoxicity against MDCK2-MDR1 cells assessed as cell viability at 20 uM after 48 hrs by MTS assay; assay type: ADME, cell-based, Canis lupus familiaris, MDCK-II; settings: dog, read-out: Activity
# Hepatocyte = experiment: Cytotoxicity against primary human hepatocytes assessed as cell viability after 48 hrs by MTS assay; assay type: cell-based
# [19] = Cytotoxicity against primary human hepatocytes assessed as cell viability at 20 uM after 48 hrs by MTS assay; assay type: cell-based, Hepatocyte; settings: read-out: Activity
# HepG2 = experiment: Cytotoxicity against human HepG2 cells assessed as cell viability after 48 hrs by MTS assay; assay type: cell-based; settings: HepG2, 48 h
# [20] = Cytotoxicity against human HepG2 cells assessed as cell viability at 50 uM after 48 hrs by MTS assay; assay type: cell-based; settings: read-out: Activity
# Salmonella typhimurium [21] = experiment: Mutagenic activity in Salmonella typhimurium TA100 assessed as reverse mutation at 30 uM by Ames test; assay type: toxicity, organism-based; settings: salmonella enterica subsp. enterica serovar typhimurium
# Salmonella typhimurium [22] = experiment: Mutagenic activity in Salmonella typhimurium TA98 assessed as reverse mutation at 30 uM by Ames test; assay type: toxicity, organism-based; settings: salmonella enterica subsp. enterica serovar typhimurium
# [23] = Aqueous solubility of compound in distilled water at 0.2 mg/ml after 24 hrs by HPLC analysis; assay type: physicochemical
# [24] = Selectivity index, ratio of IC50 for human HepG2 cells to MIC>99 for Mycobacterium tuberculosis CNCTC My 331/88; assay type: toxicity, cell-based; settings: read-out: Selectivity Index
# Candida tropicalis = experiment: Antifungal activity against Candida tropicalis 156 after 24 to 48 hrs by broth microdilution method; assay type: functional
# Pichia kudriavzevii = experiment: Antifungal activity against Candida krusei E28 after 24 to 48 hrs by broth microdilution method; assay type: functional
# Lichtheimia corymbifera = experiment: Antifungal activity against Absidia corymbifera 272 after 24 to 48 hrs by broth microdilution method; assay type: functional
# [25] = system: Trichophyton mentagrophytes; experiment: Antifungal activity against Trichophyton mentagrophytes 445 after 72 to 120 hrs by broth microdilution method; assay type: functional
# Staphylococcus aureus [26] = experiment: Antibacterial activity against Staphylococcus aureus ATCC 6538 after 24 to 48 hrs by broth microdilution method; assay type: functional
# Staphylococcus aureus [27] = experiment: Antibacterial activity against methicillin-resistant Staphylococcus aureus H 5996/08 after 24 to 48 hrs by broth microdilution method; assay type: functional
# [28] = system: Staphylococcus epidermidis; experiment: Antibacterial activity against Staphylococcus epidermidis H 6966/08 after 24 to 48 hrs by broth microdilution method; assay type: functional
# Enterococcus faecalis = experiment: Antibacterial activity against Enterococcus faecalis J 14365/08 after 24 to 48 hrs by broth microdilution method; assay type: functional
# Klebsiella pneumoniae = experiment: Antibacterial activity against ESBL producing Klebsiella pneumoniae J 14368/08 after 24 to 48 hrs by broth microdilution method; assay type: functional
# Pseudomonas aeruginosa = experiment: Antibacterial activity against Pseudomonas aeruginosa ATCC 9027 after 24 to 48 hrs by broth microdilution method; assay type: functional
# [29] = system: Mycobacterium tuberculosis; experiment: Antimycobacterial activity against non-replicating streptomycin-starved Mycobacterium tuberculosis SS18b-Lux measured at 5 mins to 6 days by luciferase assay; assay type: functional, organism-based
# [30] = target: Decaprenylphosphoryl-beta-D-ribose oxidase (Mycobacterium smegmatis (strain ATCC 700084 / mc(2)155)) (UniProt A0R607); experiment: Inhibition of DprE1 in mixture of Mycobacterium smegmatis MC2 155 membrane and cell envelope fractions assessed as incorporation of P[14C]RPP into [14C]-decaprenylphosphoryl arabinose up to 0.6 mM incubated for 1 hr by TLC/autoradiographic method; settings: Mycolicibacterium smegmatis MC2 155
# Chain of Decaprenylphosphoryl-beta-D-ribose oxidase (Mycobacterium smegmatis (strain ATCC 700084 / mc(2)155)) (A0R607 whole entry): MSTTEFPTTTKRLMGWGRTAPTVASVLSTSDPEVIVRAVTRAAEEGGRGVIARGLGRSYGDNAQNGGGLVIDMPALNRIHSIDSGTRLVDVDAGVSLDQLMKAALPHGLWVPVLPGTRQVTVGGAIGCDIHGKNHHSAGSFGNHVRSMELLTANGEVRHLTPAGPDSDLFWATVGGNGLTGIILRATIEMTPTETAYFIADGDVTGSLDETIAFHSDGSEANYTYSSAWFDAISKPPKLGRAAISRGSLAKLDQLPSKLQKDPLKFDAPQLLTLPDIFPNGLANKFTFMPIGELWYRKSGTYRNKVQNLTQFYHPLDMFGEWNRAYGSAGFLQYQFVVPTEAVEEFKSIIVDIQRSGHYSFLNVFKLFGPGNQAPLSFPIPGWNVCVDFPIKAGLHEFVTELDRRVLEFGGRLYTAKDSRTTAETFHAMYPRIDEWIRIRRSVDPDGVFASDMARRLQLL
# [31] = system: Mycobacterium tuberculosis; experiment: Antimycobacterial activity against Mycobacterium tuberculosis H37Ra assessed as growth inhibition at 0.5 ug/ml preincubated for 24 hrs followed by radiolabeling with [14C]-acetate for 24 hrs; assay type: functional; settings: read-out: GI
# [32] = system: Mycobacterium tuberculosis H37Ra; experiment: Inhibition of DprE1 in Mycobacterium tuberculosis H37Ra assessed as accumulation of trehalose dimycolate at 0.2 ug/ml preincubated for 24 hrs followed by radiolabeling with [14C]-acetate for 24 hrs by TLC/autoradiographic method
# [33] = system: Mycobacterium tuberculosis; experiment: Antimycobacterial activity against Mycobacterium tuberculosis CNCTC My 331/88 using 1 month stored compound at room temperature in DMSO after 14 to 21 days by microdilution method; assay type: functional, organism-based
# [34] = system: Mycobacterium tuberculosis; experiment: Antimycobacterial activity against Mycobacterium tuberculosis H37Ra assessed as growth inhibition at 1 ug/ml preincubated for 1 hr followed by radiolabeling with [14C]-uracil, [14C]-methionine for 24 hrs; assay type: functional, organism-based
structure (smiles),measurement,setting,value
Cc1ccc(-c2nnc(SCc3cc([N+](=O)[O-])cc([N+](=O)[O-])c3)o2)cc1,inhibition at 1 µg/mL,[1],50%
same,inhibition at 1 µg/mL,[2],37%
same,MIC99,[3],≤ 0.03 µM
same,MIC99,Mycobacterium avium [4],8 µM
same,MIC99,Mycobacterium kansasii [5],0.06 µM
same,MIC99,[6],≤ 0.03 µM
same,MIC99,Mycobacterium avium [7],16 µM
same,MIC99,Mycobacterium kansasii [8],0.06 µM
same,MIC99,Mycobacterium kansasii [9],0.06 µM
same,MIC99,Mycobacterium kansasii [10],0.06 µM
same,IC50,[11],> 20 µM
same,IC50,HeLa [12],> 20 µM
same,IC50,HeLa [13],> 20 µM
same,"viability at 24 h, 20 µM",[14],101%
same,"viability at 48 h, 20 µM",[15],53.1%
same,"viability at 48 h, 20 µM",[16],118%
same,"viability at 24 h, 20 µM",[17],98%
same,"viability at 48 h, 20 µM",[18],48.5%
same,IC50,Hepatocyte,> 20 µM
same,"viability at 48 h, 20 µM",[19],95.1%
same,IC50,HepG2,> 50 µM
same,"viability at 48 h, 50 µM",[20],95.5%
same,Activity,Salmonella typhimurium [21],Non-toxic
same,Activity,Salmonella typhimurium [22],Non-toxic
same,solubility at 24 h,[23],0.067 µM
same,selectivity ratio,[24],> 500
same,MIC80,Candida tropicalis,> 125 µM
same,MIC80,Pichia kudriavzevii,> 125 µM
same,MIC50,Lichtheimia corymbifera,> 125 µM
same,MIC50,[25],> 125 µM
same,MIC95,Staphylococcus aureus [26],> 125 µM
same,MIC95,Staphylococcus aureus [27],> 125 µM
same,MIC95,[28],> 125 µM
same,MIC95,Enterococcus faecalis,> 125 µM
same,MIC95,Klebsiella pneumoniae,> 125 µM
same,MIC95,Pseudomonas aeruginosa,> 125 µM
same,Activity,[29],Dose-dependent effect
same,inhibition,[30],inactive
same,inhibition of growth at 0.5 µg/mL,[31],36%
same,inhibition,[32],inactive
same,Activity,[33],Active
same,growth inhibition (GI),[34],Active
O=[N+]([O-])c1cc(CSc2nnc(-c3ccc(Cl)cc3)s2)cc([N+](=O)[O-])c1,inhibition at 1 µg/mL,[1],13%
same,inhibition at 1 µg/mL,[2],20%
same,MIC99,[3],0.06 µM
same,MIC99,Mycobacterium avium [4],8 µM
same,MIC99,Mycobacterium kansasii [5],0.25 µM
same,MIC99,[6],0.06 µM
same,MIC99,Mycobacterium avium [7],16 µM
same,MIC99,Mycobacterium kansasii [8],0.5 µM
same,MIC99,Mycobacterium kansasii [9],0.125 µM
same,MIC99,Mycobacterium kansasii [10],0.125 µM
same,IC50,[11],> 20 µM
same,IC50,HeLa [12],> 20 µM
same,IC50,HeLa [13],> 20 µM
same,"viability at 24 h, 20 µM",[14],94%
same,"viability at 48 h, 20 µM",[15],43.4%
same,"viability at 48 h, 20 µM",[16],108%
same,"viability at 24 h, 20 µM",[17],102%
same,"viability at 48 h, 20 µM",[18],91.4%
same,IC50,Hepatocyte,> 20 µM
same,"viability at 48 h, 20 µM",[19],102%
same,IC50,HepG2,> 50 µM
same,"viability at 48 h, 50 µM",[20],98.5%
same,Activity,Salmonella typhimurium [21],Non-toxic
same,Activity,Salmonella typhimurium [22],Non-toxic
same,solubility at 24 h,[23],0.03 µM
same,selectivity ratio,[24],> 500
same,MIC80,Candida tropicalis,> 125 µM
same,MIC80,Pichia kudriavzevii,> 125 µM
same,MIC50,Lichtheimia corymbifera,> 125 µM
same,MIC50,[25],> 125 µM
same,MIC95,Staphylococcus aureus [26],> 125 µM
same,MIC95,Staphylococcus aureus [27],> 125 µM
same,MIC95,[28],> 125 µM
same,MIC95,Enterococcus faecalis,> 125 µM
same,MIC95,Klebsiella pneumoniae,> 125 µM
same,MIC95,Pseudomonas aeruginosa,> 125 µM
same,Activity,[29],Dose-dependent effect
same,inhibition,[30],inactive
same,inhibition of growth at 0.5 µg/mL,[31],12%
same,inhibition,[32],inactive
same,Activity,[33],Active
same,growth inhibition (GI),[34],inactive
